From ChEMBL document CHEMBL4418912, “Methods of identifying antagonists of the hTAS2R46 bitter taste receptor” (2014)
The source made the active and inactive calls.

Assays:
Format in all cases: functional, cell-based
[1] = target: T1, Taste receptor type 2 member 20 (Homo sapiens) (UniProt P59543); assay: Antagonist activity at recombinant human N-terminal rat ST3 receptor-fused TAS2R49 expressed in HEK293T cells co-expressing Galpha16gust44 assessed as inhibition of cromolyn-induced increase in intracellular calcium level at 100 uM by FLIPR assay
T1 sequence (whole entry): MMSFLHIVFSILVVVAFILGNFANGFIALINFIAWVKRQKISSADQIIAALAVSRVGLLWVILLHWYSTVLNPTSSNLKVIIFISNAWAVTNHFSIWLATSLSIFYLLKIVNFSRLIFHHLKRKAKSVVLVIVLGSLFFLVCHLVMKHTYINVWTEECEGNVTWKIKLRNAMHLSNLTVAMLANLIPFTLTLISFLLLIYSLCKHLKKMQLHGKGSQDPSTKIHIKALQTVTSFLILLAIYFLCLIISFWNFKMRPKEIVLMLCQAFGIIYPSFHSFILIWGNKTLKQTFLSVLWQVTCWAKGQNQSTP

[2] = target: T2, Taste receptor type 2 member 9 (Homo sapiens) (UniProt Q9NYW1); assay: Antagonist activity at recombinant human N-terminal rat ST3 receptor-fused TAS2R9 expressed in HEK293T cells co-expressing Galpha16gust44 assessed as inhibition of ofloxacin-induced increase in intracellular calcium level at 100 uM by FLIPR assay
T2 sequence (whole entry): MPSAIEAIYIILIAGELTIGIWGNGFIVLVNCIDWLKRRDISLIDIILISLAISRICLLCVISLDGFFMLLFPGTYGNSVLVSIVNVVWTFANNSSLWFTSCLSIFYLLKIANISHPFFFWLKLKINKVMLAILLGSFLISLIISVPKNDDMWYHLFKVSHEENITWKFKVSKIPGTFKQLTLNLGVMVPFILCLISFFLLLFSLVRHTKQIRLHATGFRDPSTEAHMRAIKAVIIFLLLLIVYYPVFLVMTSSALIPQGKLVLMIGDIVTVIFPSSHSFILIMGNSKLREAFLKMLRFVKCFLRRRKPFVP

[3] = target: T3, Taste receptor type 2 member 10 (Homo sapiens) (UniProt Q9NYW0); assay: Antagonist activity at recombinant human N-terminal rat ST3 receptor-fused TAS2R10 expressed in HEK293T cells co-expressing Galpha16gust44 assessed as inhibition of strychnine-induced increase in intracellular calcium level at 100 uM by FLIPR assay
T3 sequence (whole entry): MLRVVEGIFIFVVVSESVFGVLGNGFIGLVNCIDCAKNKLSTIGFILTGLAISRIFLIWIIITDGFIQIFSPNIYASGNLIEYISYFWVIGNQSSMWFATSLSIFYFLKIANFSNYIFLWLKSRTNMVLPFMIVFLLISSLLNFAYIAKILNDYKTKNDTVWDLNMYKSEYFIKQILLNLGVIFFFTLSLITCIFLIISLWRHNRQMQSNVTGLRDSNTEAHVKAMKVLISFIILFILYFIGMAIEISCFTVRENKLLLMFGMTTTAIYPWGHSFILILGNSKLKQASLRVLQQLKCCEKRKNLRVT

[4] = target: T4, Taste receptor type 2 member 38 (Homo sapiens) (UniProt P59533); assay: Antagonist activity at recombinant human N-terminal rat ST3 receptor-fused TAS2R38 expressed in HEK293T cells co-expressing Galpha16gust44 assessed as inhibition of phenylthiocarbamide-induced increase in intracellular calcium level at 100 uM by FLIPR assay
T4 sequence (whole entry): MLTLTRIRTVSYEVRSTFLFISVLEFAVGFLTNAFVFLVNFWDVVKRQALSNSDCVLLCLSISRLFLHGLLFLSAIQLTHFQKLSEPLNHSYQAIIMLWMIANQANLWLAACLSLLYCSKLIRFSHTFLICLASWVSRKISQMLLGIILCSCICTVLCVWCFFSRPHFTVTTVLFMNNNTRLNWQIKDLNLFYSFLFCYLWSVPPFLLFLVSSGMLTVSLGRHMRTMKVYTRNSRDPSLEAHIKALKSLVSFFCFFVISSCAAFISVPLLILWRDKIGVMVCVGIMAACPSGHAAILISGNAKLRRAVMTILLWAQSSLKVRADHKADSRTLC

[5] = target: T5, Taste receptor type 2 member 8 (Homo sapiens) (UniProt Q9NYW2); assay: Antagonist activity at recombinant human N-terminal rat ST3 receptor-fused TAS2R8 expressed in HEK293T cells co-expressing Galpha16gust44 assessed as inhibition of chloramphenicol-induced increase in intracellular calcium level at 100 uM by FLIPR assay
T5 sequence (whole entry): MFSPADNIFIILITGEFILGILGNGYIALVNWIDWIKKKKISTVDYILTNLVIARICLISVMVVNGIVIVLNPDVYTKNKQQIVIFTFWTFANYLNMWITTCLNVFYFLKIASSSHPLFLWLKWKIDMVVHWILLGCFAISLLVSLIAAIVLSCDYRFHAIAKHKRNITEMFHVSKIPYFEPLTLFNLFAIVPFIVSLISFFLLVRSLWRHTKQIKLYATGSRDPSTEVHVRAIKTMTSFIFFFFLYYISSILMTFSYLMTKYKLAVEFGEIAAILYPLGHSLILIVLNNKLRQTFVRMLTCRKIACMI

[6] = target: T6, Taste receptor type 2 member 14 (Homo sapiens) (UniProt Q9NYV8); assay: Antagonist activity at recombinant human N-terminal rat ST3 receptor-fused TAS2R14 expressed in HEK293T cells co-expressing Galpha16gust44 assessed as inhibition of aristolochic acid-induced increase in intracellular calcium level at 100 uM by FLIPR assay
T6 sequence (whole entry): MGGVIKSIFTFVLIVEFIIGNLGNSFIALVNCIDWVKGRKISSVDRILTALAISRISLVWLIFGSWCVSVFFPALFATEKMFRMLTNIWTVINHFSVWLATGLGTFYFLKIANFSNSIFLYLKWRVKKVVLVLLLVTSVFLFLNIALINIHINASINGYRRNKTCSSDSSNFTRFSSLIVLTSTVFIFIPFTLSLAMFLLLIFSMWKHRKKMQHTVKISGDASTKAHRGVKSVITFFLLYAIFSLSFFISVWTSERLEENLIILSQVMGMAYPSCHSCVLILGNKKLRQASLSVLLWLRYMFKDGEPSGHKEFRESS

[7] = target: T7, Taste receptor type 2 member 5 (Homo sapiens) (UniProt Q9NYW4); assay: Agonist activity at recombinant human N-terminal rat ST3 receptor-fused TAS2R5 expressed in HEK293T cells co-expressing Galpha16gust44 assessed as increase in intracellular calcium level at 100 uM by FLIPR assay
T7 sequence (whole entry): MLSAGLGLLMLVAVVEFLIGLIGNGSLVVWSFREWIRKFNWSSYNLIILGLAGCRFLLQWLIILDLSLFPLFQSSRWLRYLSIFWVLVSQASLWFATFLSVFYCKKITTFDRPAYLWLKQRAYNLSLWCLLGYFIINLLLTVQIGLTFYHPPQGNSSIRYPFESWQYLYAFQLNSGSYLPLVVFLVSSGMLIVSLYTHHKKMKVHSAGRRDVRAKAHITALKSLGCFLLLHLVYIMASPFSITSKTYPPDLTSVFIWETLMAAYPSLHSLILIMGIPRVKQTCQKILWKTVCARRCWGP

C/C1=C\C[C@H](O)[C@@H](C)C[C@H]2OC(=O)[C@@H](C)[C@@H]2CC1
inactive: inhibition [1] | inhibition [2] | inhibition [3] | inhibition [4] | inhibition [5] | inhibition [6]

C/C1=C\C[C@H](O)/C(C)=C/[C@H]2OC(=O)[C@@H](C)[C@@H]2CC1
inactive: inhibition [1] | Activity [7] | inhibition [2] | inhibition [3] | inhibition [4] | inhibition [5] | inhibition [6]
